Experimental data: patent US8679461B2, “Use of hesperetin for enhancing the sweet taste” (Symrise AG, priority 2005, dated 2014)
Several values for one entry are separate records, joined by “and”; a condition that tells them apart may be missing. Equal entries are not always repeated.

What was measured:
[1] = tested on: sweet impression of a 5% by weight sucrose-containing solution; test: Enhancing the sweet impression of a sugar solution, rating by a group of experts (Application Example 1); assay type: in vivo; conditions: for total number of tasters against the number of tasters who found the test solution sweeter / % Enhancement of the sweet impression: 5% sucrose + 100 ppm substance against 5% sucrose solution; for % Enhancement of the sweet impression: calculated from mean ratings; for Sweet impression (1-10) b) with: 5% sucrose + 100 ppm substance, rating 0 [not sweet] to 10 [extremely sweet], mean ± standard deviation
Description: In order to quantify the enhancement of a sweet impression owing to the addition of hesperetin, the respective sweetness of a 5% by weight sucrose-containing solution and of samples which contained 5% sucrose and 100 ppm hesperetin (source: Sigma-Aldrich, Order.-No. H 4125, CA-No. 41001-90-5) or a quantity of comparative hydroxyflavanones naringenin, eriodictyol, homoeriodictyol or eriodictyol-7-methylether (cf. US 2002 188,019) was determined by a group of experts (rating0 [not sweet] to 10 [extremely sweet]). Evaluation took place as a calculation of the enhancement (in %) of the sweet impression from the mean values of the assessments of the sucrose solution or the sucrose and compound 2-containing solution.

[2] = tested on: sweet impression of sucrose-containing solutions; test: Sweet impression of a sugar-reduced test solution, rating by a group of experts (Application Example 2); assay type: in vivo
Description: In order to quantify the retention of a sweet impression when replacing a sucrose content with a small quantity of hesperetin, the respective sweetness of (a) a 6% by weight sucrose-containing solution against a 5% by weight sucrose-containing solution and (b) a 6% by weight sucrose-containing solution against a solution which contained 5% sucrose and a quantity of hesperetin (source: Sigma-Aldrich, Order No. H 4125, CA-No. 41001-90-5) was determined by a group of experts (rating 0 [not sweet] to 10 [extremely sweet]). Evaluation took place as a calculation of the enhancement (in %) of the sweet impression from the mean values of the assessments of the 6% or 5% sucrose-containing solution or 5% sucrose and 100 ppm hesperetin-containing solution.

sweet taste = conditions: concentration of 200 ppm; cited from earlier work

Row | Compound | total number of tasters against the number of tasters who found the test solution sweeter [1] | % Enhancement of the sweet impression [1] | Sweet impression (1-10) b) with [1] | also measured
1 | COc1cc(O)c2c(c1)OC(c1ccc(O)c(O)c1)CC2=O (stereo not drawn) [Eriodictyol-7-methylether] | 18/13 | +15.9% | 5.7 ± 1.9 | 
2 | O=C1C[C@@H](c2ccc(O)c(O)c2)Oc2cc(O)cc(O)c21 [Eriodictyol] | 12/2 | −16.7% | 5.4 ± 1.2 | 
3 | COc1ccc(C2CC(=O)c3c(O)cc(O)cc3O2)cc1O (stereo not drawn) [Hesperetin, 4′-methoxy-3′,5,7-trihydroxyflavanone] | 16/14 | +41% | 7.1 ± 2.4 | sweet-enhancing effect (in words) ([1]; in contrast to naringenin, homoeriodictyol, eriodictyol and eriodictyol-7-methylether, cf. Example 1): clear and significant sweet-enhancing effect; total number of tasters against the number of tasters who found the test solution sweeter ([2]; test (b): 5% sucrose + 100 ppm hesperetin against 6% sucrose): 15/12; % Enhancement of the sweet impression ([2]; test (b): 5% sucrose + 100 ppm hesperetin against 6% sucrose solution): +21%; Sweet impression (1-10) 5% sucrose + 100 ppm hesperetin ([2]; test (b), mean ± standard deviation): 7.9 ± 1.5; inherent taste (in words) (sweet taste): very weak sweet taste
4 | COc1cc([C@@H]2CC(=O)c3c(O)cc(O)cc3O2)ccc1O [Homoeriodictyol] | 19/13 | +6.4% | 6.1 ± 1.5 | 
5 | O=C1C[C@@H](c2ccc(O)cc2)Oc2cc(O)cc(O)c21 [Naringenin] | 19/12 | +7.5% | 6.0 ± 1.7 | 
6 | OC[C@H]1O[C@@](CO)(O[C@H]2O[C@H](CO)[C@@H](O)[C@H](O)[C@H]2O)[C@@H](O)[C@@H]1O [sucrose] |  |  |  | Sweet impression (1-10) 5% sucrose ([2]; 5% by weight sucrose solution, test (a), mean ± standard deviation): 5.0 ± 1.6; Sweet impression (1-10) 6% sucrose ([2]; 6% by weight sucrose solution, reference in tests (a) and (b), mean ± standard deviation): 6.5 ± 1.5 and 6.9 ± 1.6; total number of tasters against the number of tasters who found the test solution sweeter ([2]; test (a): 5% sucrose against 6% sucrose): 15/0; % Enhancement of the sweet impression ([2]; test (a): 5% sucrose solution against 6% sucrose solution): −30%
